From PMC11355573, “A New Renieramycin T Right-Half Analog as a Small Molecule Degrader of STAT3” (Marine Drugs, 2024)

Assays:
[1] = target: T1, STAT3–ubiquitin complex (Homo sapiens, UniProt P40763); experiment: Immunoprecipitation and Western blot of STAT3–ubiquitin complex; assay type: cell-based; settings: H460, 2.5 µM, 6 h, MG132 10 µM pretreatment, vs untreated cells
T1 construct: endogenous in cells; host or cells: NCI-H460 (ATCC HTB-177)
Experimental: (§1) To explore whether the reduction in total STAT3 protein after DH_31 treatments (as shown in Figure 5B–E) occurs at the mRNA or protein levels, we first investigated mRNA levels using Real-time qPCR. […] To evaluate whether DH_31 affects STAT3 stability, pretreatment with MG132, a potent selective proteasome inhibitor, was performed. H460 cells were pretreated with or without MG132 (10 μM) for 1 h and then cells were either treated with DH_31 for 6 h or left untreated. […] The proteasome can recognize and degrade protein targets that are conjugated by single or poly-ubiquitin molecules. To investigate the ubiquitination level of STAT3 with DH_31 treatments, the ubiquitination level was evaluated using immunoprecipitation and Western blot analysis of the STAT3–ubiquitin complex in the lung cancer cells treated with DH_31 and in untreated cells.
Immunoprecipitation assay was performed to investigate ubiquitin–proteasomal degradation, shedding light on the regulatory mechanisms involved. H460 cells (4.0 × 10^5 cells per well) were seeded in 6-well plates. Following overnight incubation, the cells were pretreated with 10 μM of a proteasome inhibitor, MG132, for 1 h to prevent proteasomal degradation, and then were treated with different concentrations of DH_31 (0–2.5 μM) for 6 h. After treatment, the cells were lysed as described above. […]

[2] = target: T2, STAT3 (Homo sapiens, UniProt P40763); experiment: STAT3 immunofluorescence and confocal microscopy; assay type: cell-based; settings: H460, 2.5 µM, 24 h (p < 0.001)
T2 construct: endogenous in cells; host or cells: NCI-H460 (ATCC HTB-177)
Experimental: To explore whether DH_31 could suppress STAT3, H460 cells were treated with 1 and 2.5 μM of DH_31 for 24 h. Immunofluorescence and confocal microscopy were performed to visualize STAT3 expression.
Immunofluorescence staining and confocal microscopy were conducted to visualize the subcellular localization and spatial distribution of specific proteins. H460 cells (1.0 × 10^4 cells per well) were seeded in 96-well plates. Following overnight incubation, the cells were treated with different concentrations of DH_31 (0–2.5 μM) for 24 h at 37 °C. After treatment, the cells were permeabilized with 0.5% Triton-X in PBS for 5 min, followed by the blocking of non-specific proteins with 10% FBS in 0.1% Triton-X PBS for 1 h at room temperature. Subsequently, the cells were exposed to primary antibodies (STAT3, Slug, Snail, Vimentin, N-cadherin, ZO1, and ZEB1) and incubated at 4 °C overnight. The cells were then incubated with Alexa Fluor 488- or 594-conjugated secondary antibodies and Hoechst 33342 for 1 h at room temperature. After washing with PBS, the cells were covered with 50% glycerol. The images were captured by confocal microscopy (Zeiss, Jena, Germany). The fluorescence intensity was measured using ImageJ™ software (Image J 1.52a, Rasband, W., National Institutes of Health, Bethesda, MD, USA).

[3] = target: T2, STAT3; experiment: STAT3 proteasomal degradation, Western blot with or without MG132; assay type: cell-based; settings: H460, 1 and 2.5 µM, 6 h, without MG132 (p < 0.05)
Experimental: as §1
Immunoprecipitation assay was performed to investigate ubiquitin–proteasomal degradation, shedding light on the regulatory mechanisms involved. H460 cells (4.0 × 10^5 cells per well) were seeded in 6-well plates. Following overnight incubation, the cells were pretreated with 10 μM of a proteasome inhibitor, MG132, for 1 h to prevent proteasomal degradation, and then were treated with different concentrations of DH_31 (0–2.5 μM) for 6 h. After treatment, the cells were lysed as described above. Immunoprecipitation was carried out using the Dynabeads™ Protein G Immunoprecipitation kit, following the manufacturers’ protocols. The magnetic beads were coated with the rabbit anti-STAT3, then incubated with whole-cell lysate and mixed gently overnight at 4 °C. After washing, the supernatant containing the antibody–antigen complex was used to perform Western blot analysis to detect the ubiquitinated STAT3 protein.

[4] = tested on: detached H460 cells; experiment: Anoikis assay (viability under detachment, MTT); assay type: cell-based, human; settings: H460, 1 and 2.5 μM, at 12 h (p < 0.01) and 24 h (p < 0.001)
Experimental: Anoikis, a detachment-induced apoptosis, is a mechanism to prevent metastasis, so resistance to anoikis enhances the potential of metastasis. To confirm that DH_31 induces anoikis, the detached H460 cells were treated with 1 and 2.5 μM of DH_31 for 6, 12, and 24 h.
MTT assay was conducted to ascertain cell viability after treatment with DH-31 under detachment conditions. H292 and H460 cells (5.0 × 10^3 cells per well) were seeded in ultra-low attachment 96-well plates and treated with different concentrations of DH_31 (0–2.5 μM) at 37 °C. At 0, 6, 12, and 24 h of incubation, the cell suspensions were transferred onto regular cell culture plates in growth medium to facilitate attachment. After 3 h, images of cells that survived anoikis and recovered their adherent growth ability were captured with a 10 × objective using an inverted microscope (Olympus IX51 with DP70; OlympusbAmerica Inc., Center valley, PA, USA). Then, the medium in each well was removed and replaced with 100 µL of MTT solution. Cell viability was assessed using MTT assay, following the manufacturers’ protocols. Anoikis resistance was calculated as a percentage compared with the control.

T2 sequence (P40763 whole entry): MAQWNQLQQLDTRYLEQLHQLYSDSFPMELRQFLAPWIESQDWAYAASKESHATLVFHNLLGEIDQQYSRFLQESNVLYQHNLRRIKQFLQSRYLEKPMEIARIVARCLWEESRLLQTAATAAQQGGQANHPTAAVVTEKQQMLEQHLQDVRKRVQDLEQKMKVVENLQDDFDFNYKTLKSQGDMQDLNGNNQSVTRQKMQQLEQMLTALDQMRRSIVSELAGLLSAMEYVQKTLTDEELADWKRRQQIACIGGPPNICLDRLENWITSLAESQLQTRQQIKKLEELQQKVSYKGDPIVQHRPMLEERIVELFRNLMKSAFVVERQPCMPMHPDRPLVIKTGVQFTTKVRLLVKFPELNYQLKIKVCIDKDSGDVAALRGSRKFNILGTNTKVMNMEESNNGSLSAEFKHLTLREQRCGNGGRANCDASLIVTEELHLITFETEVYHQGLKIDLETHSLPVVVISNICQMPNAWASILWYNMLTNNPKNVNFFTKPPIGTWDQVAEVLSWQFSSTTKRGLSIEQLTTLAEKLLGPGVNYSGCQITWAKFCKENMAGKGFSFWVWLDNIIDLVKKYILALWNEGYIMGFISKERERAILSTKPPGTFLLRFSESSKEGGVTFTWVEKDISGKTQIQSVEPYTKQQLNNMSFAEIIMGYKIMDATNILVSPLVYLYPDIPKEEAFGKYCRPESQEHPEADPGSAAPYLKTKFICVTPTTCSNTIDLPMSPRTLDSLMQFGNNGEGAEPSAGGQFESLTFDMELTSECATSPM
T1 sequence (P40763 2-770 limits assumed, one chain of several): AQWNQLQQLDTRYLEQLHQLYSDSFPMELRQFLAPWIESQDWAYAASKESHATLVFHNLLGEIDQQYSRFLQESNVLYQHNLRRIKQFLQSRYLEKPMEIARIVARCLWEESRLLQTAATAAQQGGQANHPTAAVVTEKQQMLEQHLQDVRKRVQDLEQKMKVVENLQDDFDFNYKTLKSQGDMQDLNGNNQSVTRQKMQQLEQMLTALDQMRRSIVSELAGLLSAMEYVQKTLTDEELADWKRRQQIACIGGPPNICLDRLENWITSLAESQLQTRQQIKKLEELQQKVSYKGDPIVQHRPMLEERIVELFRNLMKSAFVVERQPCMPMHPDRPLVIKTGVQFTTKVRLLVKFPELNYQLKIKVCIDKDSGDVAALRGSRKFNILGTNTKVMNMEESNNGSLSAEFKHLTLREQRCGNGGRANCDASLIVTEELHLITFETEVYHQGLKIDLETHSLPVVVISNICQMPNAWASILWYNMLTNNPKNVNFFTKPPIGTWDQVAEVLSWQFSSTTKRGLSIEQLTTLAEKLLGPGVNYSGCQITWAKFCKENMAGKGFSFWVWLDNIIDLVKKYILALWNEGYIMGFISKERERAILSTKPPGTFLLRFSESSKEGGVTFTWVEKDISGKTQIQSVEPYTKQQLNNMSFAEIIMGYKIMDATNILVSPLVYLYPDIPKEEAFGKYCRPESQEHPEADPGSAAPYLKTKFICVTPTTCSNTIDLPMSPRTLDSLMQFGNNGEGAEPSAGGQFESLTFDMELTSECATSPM

**Q.** Which results are given for COc1c(C)cc2c(c1O)[C@@H]1CN(Cc3ccc4ccccc4c3)[C@@H](C#N)[C@H](C2)N1C [DH_31, (1R,4R,5S)-10-hydroxy-9-methoxy-8,11-dimethyl-3-(naphthalen-2-ylmethyl)-1,2,3,4,5,6-hexahydro-1,5-epiminobenzo[d]azocine-4-carbonitrile]?
**A.** STAT3–ubiquitin formation [1]: significantly enhanced; STAT3 expression (immunofluorescence) [2]: significant reduction; STAT3 protein levels (Western blot) [3]: significantly reduced; cell viability of detached cells (anoikis) [4]: significant decrease
